Results as given in PMC4871228 (European journal of medicinal chemistry, 2015).
Like-named read-outs stand apart in the source and are kept apart here. Values belong to the compound of their own block, whether it stands above or below them.

Legend:
KAT8 [1] = biological target: T1, KAT8 (Homo sapiens, UniProt Q9H7Z6); assay: Isothermal titration calorimetry, titration to KAT8; assay type: binding; settings: ITC, Ac-CoA vs KAT8
T1 sequence (Q9H7Z6 1-458): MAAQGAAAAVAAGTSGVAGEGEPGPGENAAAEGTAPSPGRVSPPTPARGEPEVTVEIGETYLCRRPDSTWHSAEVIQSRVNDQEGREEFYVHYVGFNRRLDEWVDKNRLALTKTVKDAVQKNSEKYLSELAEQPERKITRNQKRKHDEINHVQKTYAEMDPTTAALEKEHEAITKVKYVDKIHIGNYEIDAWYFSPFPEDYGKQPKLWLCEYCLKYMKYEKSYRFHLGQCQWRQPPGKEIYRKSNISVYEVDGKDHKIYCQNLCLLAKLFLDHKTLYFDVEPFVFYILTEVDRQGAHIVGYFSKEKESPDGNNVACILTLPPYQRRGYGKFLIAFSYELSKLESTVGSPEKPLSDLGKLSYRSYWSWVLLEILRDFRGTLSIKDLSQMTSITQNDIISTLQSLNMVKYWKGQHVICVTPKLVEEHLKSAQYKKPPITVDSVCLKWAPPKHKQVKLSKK

KAT8 [2] = biological target: T1, KAT8; assay: Steady-state enzyme kinetics of KAT8 substrates; assay type: biochemical; settings: for Km: read-out: Km of Ac-CoA
KAT8 [3] = biological target: T1, KAT8; assay: KAT8 inhibition, fluorescence-based assay detecting CoA with CPM; assay type: biochemical; settings: within the investigated range of concentrations (up to 400 µM)

-TΔS (KAT8 [1]): −17228 cal/mol/degK
Kd (KAT8 [1]): 8.7 ± 1.2 µM
N (stoichiometry) (KAT8 [1]): 0.95
ΔG (KAT8 [1]): −6758
ΔH (KAT8 [1]): 10.47 ± 0.47 kcal/mol
Vmax of Ac-CoA (KAT8 [2]; 15 µM histone H4 peptide): 3.4 ± 0.2 pmol/min
kcat of Ac-CoA (KAT8 [2]; 15 µM histone H4 peptide): 0.0033 ± 0.00033 s⁻¹
Vmax of Ac-CoA (KAT8 [2]; 30 µM histone H4 peptide): 4.5 ± 0.3 pmol/min
kcat of Ac-CoA (KAT8 [2]; 30 µM histone H4 peptide): 0.005 ± 0.00033 s⁻¹
Vmax of Ac-CoA (KAT8 [2]; 60 µM histone H4 peptide): 9.9 ± 0.3 pmol/min
kcat of Ac-CoA (KAT8 [2]; 60 µM histone H4 peptide): 0.012 ± 0.00067 s⁻¹
Vmax of Ac-CoA (KAT8 [2]; 90 µM histone H4 peptide): 14.7 ± 0.6 pmol/min
kcat of Ac-CoA (KAT8 [2]; 90 µM histone H4 peptide): 0.0183 ± 0.001 s⁻¹
Km (KAT8 [2]; 15 µM histone H4 peptide): 1.1 ± 0.3 µM
Km (KAT8 [2]; 30 µM histone H4 peptide): 1.2 ± 0.3 µM
Km (KAT8 [2]; 60 µM histone H4 peptide): 2.1 ± 0.3 µM
Km (KAT8 [2]; 90 µM histone H4 peptide): 2.8 ± 0.5 µM
SMILES: CC(=O)SCCNC(=O)CCNC(=O)[C@H](O)C(C)(C)COP(=O)(O)OP(=O)(O)OC[C@H]1O[C@@H](n2cnc3c(N)ncnc32)[C@H](O)[C@@H]1OP(=O)(O)O [Ac-CoA, acetyl coenzyme A]

KAT8 inhibitory potency (in words) (KAT8 [3]): completely removed activity
SMILES: CCCCCCCSCC(=O)c1ccccc1O [Compound 13]

KAT8 inhibitory potency (in words) (KAT8 [3]): completely lose their affinity
SMILES: CCCCCc1ccc(O)c(C(=O)O)c1 [Compound 11c]

KAT8 inhibitory potency (in words) (KAT8 [3]): completely lose their affinity
SMILES: CCCCCc1cccc(O)c1C(=O)O [Compound 14]

KAT8 inhibitory potency (in words) (KAT8 [3]): loss of potency
SMILES: O=C(O)c1c(O)cccc1CCCCCCCCCCCO [Compound 8b]
